For four molecules, growth results are on record in ChEMBL document CHEMBL3994622, “Design and synthesis of new RAF kinase-inhibiting antiproliferative quinoline derivatives. Part 2: Diarylurea derivatives” (Eur J Med Chem, 2017).

Holding throughout (type): functional
For one experiment, the system named is HCT-15. As to the kind of experiment: Growth inhibition of human HCT15 cells assessed as cell growth at 30 uM incubated for 48 hrs by sulforhodamine B assay relative to control. Particulars: HCT-15, 48 h, read-out: Activity. (Sulforhodamine B stains cellular protein and so reports cell mass.)
The test system of another experiment is NCI-H322M. As to the kind of experiment: Growth inhibition of human NCI-H322M cells assessed as cell growth at 30 uM incubated for 48 hrs by sulforhodamine B assay relative to control. The settings on record: read-out: Activity.
The next experiment has as its system CCRF-CEM. As to the kind of experiment: Growth inhibition of human CCRF-CEM cells assessed as cell growth at 3 uM incubated for 48 hrs by sulforhodamine B assay relative to control. Particulars: read-out: Activity.
The subject of experiment [1] is ACHN. In words: Growth inhibition of human ACHN cells assessed as cell growth at 0.003 uM incubated for 48 hrs by sulforhodamine B assay relative to control. Particulars: read-out: Activity.
The test system of experiment [2] is ACHN. As to the kind of experiment: Growth inhibition of human ACHN cells assessed as cell growth at 30 uM incubated for 48 hrs by sulforhodamine B assay relative to control. Particulars: read-out: Activity.
Experiment [3] has as its system UACC-257. As to the kind of experiment: Growth inhibition of human UACC257 cells assessed as cell growth at 0.03 uM incubated for 48 hrs by sulforhodamine B assay relative to control. Particulars: UACC-257, 48 h, read-out: Activity.
The test system of a further experiment is SNB-75. As to the kind of experiment: Growth inhibition of human SNB75 cells assessed as cell growth at 0.03 uM incubated for 48 hrs by sulforhodamine B assay relative to control. The settings on record: SNB-75, 48 h, read-out: Activity.
The next experiment relates to U-251. As to the kind of experiment: Growth inhibition of human U251 cells assessed as cell growth at 3 uM incubated for 48 hrs by sulforhodamine B assay relative to control. Particulars: U-251, 48 h, read-out: Activity.
For the next experiment, the system named is OVCAR-3. As to the kind of experiment: Growth inhibition of human OVCAR3 cells assessed as cell growth at 0.3 uM incubated for 48 hrs by sulforhodamine B assay relative to control. Particulars: OVCAR-3, 48 h, read-out: Activity.
The next experiment deals with NCI-H226. As to the kind of experiment: Growth inhibition of human NCI-H226 cells assessed as cell growth at 0.03 uM incubated for 48 hrs by sulforhodamine B assay relative to control. Particulars: NCI-H226, 48 h, read-out: Activity.
A further experiment concerns BT-549. As to the kind of experiment: Growth inhibition of human BT549 cells assessed as cell growth at 3 uM incubated for 48 hrs by sulforhodamine B assay relative to control. The settings on record: BT-549, 48 h, read-out: Activity.
The subject of a further experiment is NCI/ADR-RES. As to the kind of experiment: Growth inhibition of human NCI/ADR-RES cells assessed as cell growth at 30 uM incubated for 48 hrs by sulforhodamine B assay relative to control. Particulars: read-out: Activity.
For the next experiment, the system named is A549. In words: Growth inhibition of human A549/ATCC cells assessed as cell growth at 3 uM incubated for 48 hrs by sulforhodamine B assay relative to control. The settings on record: A549, 48 h, read-out: Activity.
The next experiment has as its system RPMI-8226. As to the kind of experiment: Growth inhibition of human RPMI8226 cells assessed as cell growth at 30 uM incubated for 48 hrs by sulforhodamine B assay relative to control. The settings on record: RPMI-8226, 48 h, read-out: Activity.
In another experiment the test system is SK-MEL-28. As to the kind of experiment: Growth inhibition of human SK-MEL-28 cells assessed as cell growth at 0.03 uM incubated for 48 hrs by sulforhodamine B assay relative to control. Particulars: SK-MEL-28, 48 h, read-out: Activity.
The next experiment deals with MDA-MB-231. As to the kind of experiment: Growth inhibition of human MDA-MB-231 cells assessed as cell growth at 0.3 uM incubated for 48 hrs by sulforhodamine B assay relative to control. Particulars: MDA-MB-231, 48 h, read-out: Activity.
A further experiment has as its system CAKI-1. As to the kind of experiment: Growth inhibition of human Caki1 cells assessed as cell growth at 3 uM incubated for 48 hrs by sulforhodamine B assay relative to control. The settings on record: CAKI-1, 48 h, read-out: Activity.
The test system of experiment [4] is MCF7. As to the kind of experiment: Growth inhibition of human MCF7 cells assessed as cell growth at 30 uM incubated for 48 hrs by sulforhodamine B assay relative to control. The settings on record: MCF7, 48 h, read-out: Activity.
In experiment [5] the test system is HOP-62. As to the kind of experiment: Growth inhibition of human HOP62 cells assessed as cell growth at 0.003 uM incubated for 48 hrs by sulforhodamine B assay relative to control. Particulars: HOP-62, 48 h, read-out: Activity.
For experiment [6], the system named is MCF7. In words: Growth inhibition of human MCF7 cells assessed as cell growth at 100 uM incubated for 48 hrs by sulforhodamine B assay relative to control. The settings on record: MCF7, 48 h, read-out: Activity.
Another experiment has as its system UO-31. In words: Growth inhibition of human UO31 cells assessed as cell growth at 0.01 uM incubated for 48 hrs by sulforhodamine B assay relative to control. Particulars: UO-31, 48 h, read-out: Activity.
Another experiment relates to Malme-3M. As to the kind of experiment: Growth inhibition of human MALME-3M cells assessed as cell growth at 0.1 uM incubated for 48 hrs by sulforhodamine B assay relative to control. The settings on record: read-out: Activity.
The subject of the next experiment is TK-10. In words: Growth inhibition of human TK10 cells assessed as cell growth at 0.01 uM incubated for 48 hrs by sulforhodamine B assay relative to control. Particulars: TK-10, 48 h, read-out: Activity.
In another experiment the test system is HCC 2998. In words: Growth inhibition of human HCC2998 cells assessed as cell growth at 1 uM incubated for 48 hrs by sulforhodamine B assay relative to control. The settings on record: HCC 2998, 48 h, read-out: Activity.
The subject of experiment [7] is PC-3. In words: Growth inhibition of human PC3 cells assessed as cell growth at 0.01 uM incubated for 48 hrs by sulforhodamine B assay relative to control. The settings on record: PC-3, 48 h, read-out: Activity.
The subject of the next experiment is SNB-19. As to the kind of experiment: Growth inhibition of human SNB19 cells assessed as cell growth at 0.1 uM incubated for 48 hrs by sulforhodamine B assay relative to control. The settings on record: SNB-19, 48 h, read-out: Activity.
Another experiment relates to HCT-116. In words: Growth inhibition of human HCT116 cells assessed as cell growth at 0.1 uM incubated for 48 hrs by sulforhodamine B assay relative to control. The settings on record: HCT-116, 48 h, read-out: Activity.
Experiment [8] has as its system HOP-62. As to the kind of experiment: Growth inhibition of human HOP62 cells assessed as cell growth at 0.1 uM incubated for 48 hrs by sulforhodamine B assay relative to control. Particulars: HOP-62, 48 h, read-out: Activity.
For experiment [9], the system named is NCI-H460. In words: Growth inhibition of human NCI-H460 cells assessed as cell growth at 0.1 uM incubated for 48 hrs by sulforhodamine B assay relative to control. Particulars: NCI-H460, 48 h, read-out: Activity.
In experiment [10] the test system is UACC-257. As to the kind of experiment: Growth inhibition of human UACC257 cells assessed as cell growth at 100 uM incubated for 48 hrs by sulforhodamine B assay relative to control. The settings on record: UACC-257, 48 h, read-out: Activity.
For experiment [11], the system named is NCI-H460. In words: Growth inhibition of human NCI-H460 cells assessed as cell growth at 1 uM incubated for 48 hrs by sulforhodamine B assay relative to control. Particulars: NCI-H460, 48 h, read-out: Activity.
In experiment [12] the test system is PC-3. In words: Growth inhibition of human PC3 cells assessed as cell growth at 10 uM incubated for 48 hrs by sulforhodamine B assay relative to control. The settings on record: PC-3, 48 h, read-out: Activity.
In a further experiment the test system is HOP-92. As to the kind of experiment: Growth inhibition of human HOP92 cells assessed as cell growth at 0.1 uM incubated for 48 hrs by sulforhodamine B assay relative to control. The settings on record: HOP-92, 48 h, read-out: Activity.
For a further experiment, the system named is SN12C. In words: Growth inhibition of human SN12C cells assessed as cell growth at 0.01 uM incubated for 48 hrs by sulforhodamine B assay relative to control. Particulars: read-out: Activity.

The structures appear in SMILES notation.

For `Cc1nc2cc(O)c(O)cc2cc1Oc1ccc(NC(=O)Nc2ccc(Cl)c(Cl)c2)cc1`, the growth at 30 µM with HCT-15 is 9%; in the experiment with NCI-H322M, 19%; in the experiment with ACHN [2], -18%; with NCI/ADR-RES, 3%; with RPMI-8226, -22%; in the experiment on MCF7 [4], 1%. The growth at 3 µM in the experiment on CCRF-CEM turned out to be 76%; in the experiment with U-251, 71%; in the experiment on BT-549, 78%; with A549, 98%; in the experiment with CAKI-1 it was 62%. Further, the values for the growth at 0.003 µM with ACHN [1] and in the experiment with HOP-62 [5] were 103% and 108%, respectively. In addition, the growth at 0.03 µM with UACC-257 [3] came to 86%; with SNB-75, 81%; in the experiment on NCI-H226, 103%; with SK-MEL-28 it was 87%. Also, the growth at 0.3 µM in the experiment with OVCAR-3 was 109%; in the experiment with MDA-MB-231, 118%.

As for `COc1cc2cc(Oc3ccc(NC(=O)Nc4ccc(Cl)c(C(F)(F)F)c4)cc3)c(C)nc2cc1OC`, the growth at 30 µM in the experiment with HCT-15 is -76%; in the experiment with NCI-H322M it was -86%; with ACHN [2], -85%; with NCI/ADR-RES, -39%; in the experiment with RPMI-8226, -47%; with MCF7 [4] it was -79%. The growth at 3 µM in the experiment with CCRF-CEM was -2%; with U-251, 6%; in the experiment on BT-549, 12%; in the experiment on A549, 10%; with CAKI-1, -11%. The values for the growth at 0.003 µM in the experiment with ACHN [1] and in the experiment with HOP-62 [5] were 95% and 99%, respectively. In addition, the growth at 0.03 µM in the experiment with UACC-257 [3] is 86%; in the experiment with SNB-75, 84%; in the experiment on NCI-H226, 98%; in the experiment with SK-MEL-28, 98%. The growth at 0.3 µM worked out at 95% with OVCAR-3 and 87% in the experiment on MDA-MB-231.

As for `COc1cc2cc(Oc3ccc(NC(=O)Nc4ccc(Cl)c(Cl)c4)cc3)c(C)nc2cc1OC`, the growth at 100 µM in the experiment with MCF7 [6] is -50%; in the experiment with UACC-257 [10], -92%. Further, the growth at 0.01 µM came to 96% with UO-31, 106% in the experiment with TK-10, 96% in the experiment on PC-3 [7] and 93% in the experiment on SN12C. For the same molecule, the growth at 0.1 µM in the experiment with Malme-3M turned out to be 105%; in the experiment on SNB-19, 93%; in the experiment with HCT-116, 102%; with HOP-62 [8] it was 104%; with NCI-H460 [9] it was 103%; in the experiment with HOP-92, 92%. The growth at 1 µM with HCC 2998 was 96%; with NCI-H460 [11] it was 82%. Besides, the growth at 10 µM with PC-3 [12] is -28%.

As to `COc1cc2cc(Oc3ccc(NC(=O)Nc4cc(C(F)(F)F)cc(C(F)(F)F)c4)cc3)c(C)nc2cc1OC`, the growth at 100 µM is -73% in the experiment with MCF7 [6] and -78% with UACC-257 [10]. Further, the growth at 0.01 µM in the experiment on UO-31 was found to be 82%; with TK-10, 96%; in the experiment on PC-3 [7], 92%; in the experiment with SN12C it was 96%. In addition, the growth at 0.1 µM with Malme-3M came to 87%; in the experiment on SNB-19, 97%; in the experiment on HCT-116 it was 106%; in the experiment with HOP-62 [8] it was 94%; in the experiment on NCI-H460 [9] it was 107%; with HOP-92, 90%. The growth at 1 µM in the experiment with HCC 2998 worked out at 79%; in the experiment with NCI-H460 [11], 49%. For the same molecule, the growth at 10 µM with PC-3 [12] was -41%.
